This passage reports IC50 cell viability results from the supplement of paper PMC6580486.

The subject of assay [1] is PCB490-4 (human epithelioid sarcoma primary culture). As for the experimental part:
(§1)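 Roche open-access kinase inhibitor screen (223 compounds) on human epithelioid sarcoma primary cultures from three spatially distinct regions of tumor PCB490. 384-well plates, 72 h, CellTiter-Glo viability; IC50 by Hill curve fit. 100000 nM = no IC50 reached. Compound ids carry a plate-well prefix, which is stripped.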

Assay [2] concerns PCB490-5 (human epithelioid sarcoma primary culture). The protocol: as §1
For assay [3], the system named is PCB490-3 (human epithelioid sarcoma primary culture). As for the experimental part: as §1

For `CC(=O)N[C@@H](Cc1ccc(OP(=O)(O)O)cc1)C(=O)N[C@H]1CCC(=O)N2CCC[C@@H](C(=O)NCc3ccc(Cl)cc3)N2C1=O`, the IC50 cell viability in assay [1], in assay [2] and in assay [3] was over 100 µM throughout.

On to `Cn1c(=O)c(Oc2ccc(F)cc2F)cc2cnc(NC(CO)CO)nc21`, for which the IC50 cell viability is 15 µM in assay [1], 8.58 µM in assay [2] and over 100 µM in assay [3].

For `Cn1cc(C2=C(c3cn(-c4ccccc4)c4ccccc34)C(=O)NC2=O)c2ccccc21`, the IC50 cell viability in assay [1], in assay [2] and in assay [3] was over 100 µM each time.

Regarding `COc1ccc(N2Cc3cnc(Nc4ccccc4)nc3N([C@@H]3CC[C@@H](O)C3)C2=O)cc1`, the IC50 cell viability came to 1.79 µM in assay [1], 2.16 µM in assay [2] and 2.59 µM in assay [3].

As for `Cn1cc(C2=C(Nc3ccccc3)C(=O)NC2=O)c2ccccc21`, the IC50 cell viability in assay [1], in assay [2] and in assay [3] was over 100 µM each time.

Regarding `Cn1cc(C2=C(c3cn(CCCCCO)c4ccccc34)C(=O)NC2=O)c2ccccc21`, the IC50 cell viability in assay [1], in assay [2] and in assay [3] was over 100 µM throughout.

Consider `COc1ccc(F)cc1C(=O)c1cnc(NC2CCN(S(C)(=O)=O)CC2)nc1N`, for which the IC50 cell viability in assay [1], in assay [2] and in assay [3] was over 100 µM in each case.

For `Cn1c(=O)c(Oc2ccc(F)cc2F)cc2cnc(NC3CCC(O)CC3)nc21` (centres undefined), the IC50 cell viability in assay [1], in assay [2] and in assay [3] was over 100 µM throughout.

Regarding `O=C1NC(=N[C@@H]2C[C@H]2c2ccccc2)S/C1=C\c1ccc2ncccc2c1`, the IC50 cell viability in assay [1], in assay [2] and in assay [3] was over 100 µM in each case.

For the compound `O=C1NC(=N[C@@H](CO)c2ccccc2)S/C1=C\c1ccc2ncccc2c1`, the IC50 cell viability in assay [1], in assay [2] and in assay [3] was over 100 µM throughout.

With `Nc1c(C(=O)c2ccc(CCCN3CCOCC3)cc2)cnn1-c1ccc(F)cc1`, the IC50 cell viability in assay [1], in assay [2] and in assay [3] was over 100 µM throughout.

For `Cn1cc(C2=C(c3cccc([N+](=O)[O-])c3)C(=O)NC2=O)c2ccccc21`, the IC50 cell viability in assay [1], in assay [2] and in assay [3] was over 100 µM each time.

`COc1cccc(C2=C(c3cn(C)c4cccc(OC)c34)C(=O)NC2=O)c1`: the IC50 cell viability in assay [1], in assay [2] and in assay [3] was over 100 µM each time.

For `COc1cccc2c1c(C1=C(c3cn(C)c4ccccc34)C(=O)NC1=O)cn2C`, the IC50 cell viability in assay [1], in assay [2] and in assay [3] was over 100 µM throughout.

On to `Nc1c(C(=O)c2cccc(CCCN3CCOCC3)c2)cnn1-c1ccc(F)cc1`, for which the IC50 cell viability in assay [1], in assay [2] and in assay [3] was over 100 µM throughout.

With `Nc1c(C(=O)c2cccc(C#CCN3CCOCC3)c2)cnn1-c1ccc(F)cc1`, the IC50 cell viability in assay [1], in assay [2] and in assay [3] was over 100 µM throughout.

Consider `Nc1c(C(=O)c2cccc(OC[C@H](O)CO)c2)cnn1-c1ccc(F)cc1`, for which the IC50 cell viability in assay [1], in assay [2] and in assay [3] was over 100 µM in each case.

For the compound `Cn1c(=O)c(Oc2cccc(F)c2)cc2cnc(NC3CCOCC3)nc21`, the IC50 cell viability in assay [1], in assay [2] and in assay [3] was over 100 µM in each case.

`Cc1ccccc1C1=C(c2cn(C)c3ccccc23)C(=O)NC1=O`: the IC50 cell viability in assay [1], in assay [2] and in assay [3] was over 100 µM in each case.

In the case of `CC(C)c1[nH]nc2c1N=C(c1ccccc1Cl)c1cc([N+](=O)[O-])ccc1N2`, the IC50 cell viability in assay [1], in assay [2] and in assay [3] was over 100 µM in each case.

For the compound `COc1cc[nH]c1/C=C1\C(=O)Nc2ccccc21`, the IC50 cell viability in assay [1], in assay [2] and in assay [3] was over 100 µM in each case.

With `COc1ccc2c(c1)C(c1ccccc1Cl)=Nc1c(n[nH]c1C)N2`, the IC50 cell viability in assay [1], in assay [2] and in assay [3] was over 100 µM each time.

Take `N#Cc1c(C(=O)c2ccccc2)cnn1-c1ccccc1`: the IC50 cell viability in assay [1], in assay [2] and in assay [3] was over 100 µM in each case.

In the case of `COc1cccc(C2=C(c3cn(C)c4ccc(Cl)cc34)C(=O)NC2=O)c1`, the IC50 cell viability in assay [1], in assay [2] and in assay [3] was over 100 µM in each case.

Turning to `CN1CCN(c2ccc(Nc3nc(N)c(C(=O)c4ccc5c(c4)OCCO5)s3)cc2)CC1`, the IC50 cell viability in assay [1], in assay [2] and in assay [3] was over 100 µM each time.

Consider `COc1cc(F)c(F)c(F)c1C(=O)c1cnc(NC2CCN(S(C)(=O)=O)CC2)nc1N`, for which the IC50 cell viability was 4.47 µM in assay [1], 7.14 µM in assay [2] and over 100 µM in assay [3].

Consider `O=C1NC(=NCc2c(Cl)cccc2Cl)S/C1=C\c1ccc2ncccc2c1`, for which the IC50 cell viability in assay [1], in assay [2] and in assay [3] was over 100 µM in each case.

Take `CC(C)(O)Cn1c(=O)c(Oc2ccc(F)cc2F)cc2cnc(NC3CCOCC3)nc21`: the IC50 cell viability in assay [1] is over 100 µM; in assay [2] it was over 100 µM; in assay [3], 2.86 µM.

As for `O=C1NC(=NCc2cccs2)SC1Cc1ccc2ncccc2c1` (centres undefined), the IC50 cell viability in assay [1], in assay [2] and in assay [3] was over 100 µM each time.

On to `CS(=O)(=O)N1CCC(n2c(=O)c(Oc3ccc(F)cc3F)cc3cnc(NC4CCOCC4)nc32)CC1`, for which the IC50 cell viability in assay [1], in assay [2] and in assay [3] was over 100 µM in each case.

As for `Cn1c(=O)c(Cc2ccccc2F)cc2cnc(NC3CCOCC3)nc21`, the IC50 cell viability in assay [1], in assay [2] and in assay [3] was over 100 µM each time.

Regarding `O=C1NC(=N[C@@H](CO)Cc2ccccc2)S/C1=C\c1ccc2ncccc2c1`, the IC50 cell viability in assay [1], in assay [2] and in assay [3] was over 100 µM each time.

With `Cn1c(=O)c(Oc2ccc(F)cc2F)cc2cnc(NC(C)(C)CO)nc21`, the IC50 cell viability in assay [1], in assay [2] and in assay [3] was over 100 µM throughout.

`COc1ccc(CCN=C2NC(=O)/C(=C/c3ccc4ncccc4c3)S2)cc1`: the IC50 cell viability in assay [1], in assay [2] and in assay [3] was over 100 µM in each case.

`COC[C@H](N=C1NC(=O)/C(=C/c2ccc3ncccc3c2)S1)c1ccccc1`: the IC50 cell viability in assay [1], in assay [2] and in assay [3] was over 100 µM throughout.

`Nc1c(C(=O)c2ccc(-c3cccnc3)cc2)cnn1-c1ccc(F)cc1`: the IC50 cell viability in assay [1], in assay [2] and in assay [3] was over 100 µM in each case.

On to `CS(=O)(=O)CCn1c(=O)c(Oc2ccc(F)cc2F)cc2cnc(NC3CCOCC3)nc21`, for which the IC50 cell viability in assay [1], in assay [2] and in assay [3] was over 100 µM in each case.

Regarding `O=C1NC(=NCc2ccccn2)S/C1=C\c1ccc2ncccc2c1`, the IC50 cell viability in assay [1], in assay [2] and in assay [3] was over 100 µM in each case.

Consider `Cn1cc(C2=C(c3cn(C)c4cc(N)ccc34)C(=O)NC2=O)c2ccccc21`, for which the IC50 cell viability in assay [1], in assay [2] and in assay [3] was over 100 µM throughout.

Regarding `O=C1NC(=NCCc2ccc(Cl)cc2)S/C1=C\c1ccc2ncccc2c1`, the IC50 cell viability in assay [1], in assay [2] and in assay [3] was over 100 µM throughout.

Consider `CC(=O)N[C@@H](Cc1ccc(OP(=O)(O)O)cc1)C(=O)N[C@H]1CCC(=O)N2CCC[C@@H](C(=O)NCc3ccccc3)N2C1=O`, for which the IC50 cell viability in assay [1], in assay [2] and in assay [3] was over 100 µM each time.

With `CCNC(=O)[C@@H]1CCCN2C(=O)CC[C@H](NC(=O)[C@H](Cc3ccc(OP(=O)(O)O)cc3)NC(C)=O)C(=O)N12`, the IC50 cell viability in assay [1], in assay [2] and in assay [3] was over 100 µM in each case.

Regarding `Cn1cc(C2=C(c3c[nH]c4ccccc34)C(=O)NC2=O)c2ccccc21`, the IC50 cell viability in assay [1], in assay [2] and in assay [3] was over 100 µM throughout.

For the compound `COc1cc[nH]c1/C=C1\C(=O)Nc2ccc([N+](=O)[O-])c(N3CC[C@@H](O)C3)c21`, the results for the IC50 cell viability in assay [1], in assay [2] and in assay [3] were 7.83 µM, 4.71 µM and 4.87 µM, respectively.

In the case of `Cn1cc(C2=C(c3c4n(c5ccccc35)CCN(C(N)=S)C4)C(=O)NC2=O)c2ccccc21`, the IC50 cell viability in assay [1], in assay [2] and in assay [3] was over 100 µM in each case.

Regarding `Cn1cc(C2=C(c3cn(CCCO)c4ccccc34)C(=O)NC2=O)c2ccccc21`, the IC50 cell viability in assay [1], in assay [2] and in assay [3] was over 100 µM in each case.

Regarding `CNCCCn1cc(C2=C(c3cn(C)c4ccccc34)C(=O)NC2=O)c2ccccc21`, the IC50 cell viability in assay [1], in assay [2] and in assay [3] was over 100 µM each time.

As to `CCc1c(C)nc2sc3c(N)ncnc3c2c1C`, the IC50 cell viability in assay [1], in assay [2] and in assay [3] was over 100 µM each time.
